This passage reports GI50 and TGI results from PubChem BioAssay (NCI).

Test systems include UACC-62 melanoma; NCI-H226 lung; NCI-H460 lung; SK-OV-3 ovarian; HCC-2998 colon; KM12 colon; MDA-MB-231 breast; K-562 leukemia; DU-145 prostate; M14 melanoma.
Experiment in all cases: DTP human tumour cell line panel, 48 h

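Five compound concentrations were applied to cells in 96-well plates for 48 hours; endpoints were derived by simple linear interpolation of the resulting dose-response curve. Abbreviation: GI50, concentration required for 50% inhibition of growth. At the TGI there is no net growth.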 Some results are limits rather than exact numbers.

`COc1ccc(OC)c2c1[nH]c(=O)c1c3ncccc3cn21`: the GI50 in the experiment with UACC-62 melanoma was 4.43 µM; with NCI-H226 lung, 2.41 µM; with NCI-H460 lung, 1.61 µM; with SK-OV-3 ovarian it was 4.63 µM; with HCC-2998 colon, 4.44 µM; with KM12 colon it was 4.23 µM. Also, the GI50 was 4.87 µM with MDA-MB-231 breast, 3.62 µM in the experiment on K-562 leukemia, 3.45 µM in the experiment with DU-145 prostate and 4.49 µM in the experiment with M14 melanoma. Further, the TGI with UACC-62 melanoma was greater than 100 µM; with NCI-H226 lung, greater than 100 µM; in the experiment with NCI-H460 lung, 3.39 µM; with SK-OV-3 ovarian it was greater than 100 µM; in the experiment on HCC-2998 colon, greater than 100 µM; in the experiment on KM12 colon, greater than 100 µM. Further, the TGI in the experiment with MDA-MB-231 breast is greater than 100 µM; in the experiment on K-562 leukemia, greater than 100 µM; with DU-145 prostate, 14.7 µM; with M14 melanoma, greater than 100 µM.

Consider `Cn1c2ccc(Br)cc2c2c3c(c4c5ccccc5[nH]c4c21)C(=O)N(O)C3=O`, for which the GI50 with UACC-62 melanoma is 0.183 µM; in the experiment on NCI-H226 lung it was 1.06 µM; in the experiment on NCI-H460 lung, 0.04 µM; with SK-OV-3 ovarian, 0.265 µM; with HCC-2998 colon, 0.473 µM; in the experiment on KM12 colon, 0.237 µM. Further, the GI50 in the experiment on MDA-MB-231 breast is 0.21 µM; in the experiment on K-562 leukemia it was 0.168 µM; in the experiment on DU-145 prostate, 0.0871 µM; in the experiment on M14 melanoma it was 0.0877 µM. Also, the TGI was 0.529 µM in the experiment on UACC-62 melanoma; 2.92 µM in the experiment with NCI-H226 lung; 0.182 µM with NCI-H460 lung; 0.773 µM in the experiment on SK-OV-3 ovarian; 1.57 µM in the experiment on HCC-2998 colon; 0.902 µM in the experiment on KM12 colon. In addition, the values for the TGI in the experiment on MDA-MB-231 breast, in the experiment with DU-145 prostate and with M14 melanoma were 0.607 µM, 0.57 µM and 0.307 µM, respectively.

Consider `COc1nc(N)nc2c1ncn2C1OC(CO)C(O)C1O` (stereo not drawn), for which the GI50 with UACC-62 melanoma was greater than 5000 µM; in the experiment with NCI-H226 lung it was greater than 5000 µM; in the experiment on NCI-H460 lung it was 1650 µM; in the experiment with SK-OV-3 ovarian, 2430 µM; in the experiment on HCC-2998 colon, greater than 5000 µM; in the experiment with KM12 colon, greater than 5000 µM. For the same compound, the GI50 in the experiment with MDA-MB-231 breast, with K-562 leukemia, in the experiment with DU-145 prostate and in the experiment on M14 melanoma was greater than 5000 µM each time. The TGI in the experiment on UACC-62 melanoma, in the experiment with NCI-H226 lung, in the experiment with NCI-H460 lung, with SK-OV-3 ovarian, with HCC-2998 colon and in the experiment on KM12 colon was greater than 5000 µM each time. Further, the TGI with MDA-MB-231 breast, in the experiment on K-562 leukemia, in the experiment with DU-145 prostate and with M14 melanoma was greater than 5000 µM throughout.

For the compound `O=C1C=CC(=O)c2cc(Sc3ccccc3)c(=O)ccc21`, the TGI was 30.4 µM in the experiment on UACC-62 melanoma; 42.9 µM with NCI-H226 lung; 47.6 µM with NCI-H460 lung; 54.9 µM in the experiment on SK-OV-3 ovarian; 35.3 µM in the experiment with HCC-2998 colon; 34.4 µM in the experiment on KM12 colon. Besides, the TGI was determined as 35.4 µM in the experiment on MDA-MB-231 breast, 8.75 µM with K-562 leukemia, 31.5 µM in the experiment on DU-145 prostate and 41.3 µM in the experiment on M14 melanoma.

As for `O=C(/C=C/c1ccccc1)n1c(-c2ccc(Cl)cc2)nc2ccccc21`, the GI50 in the experiment on UACC-62 melanoma was 1.27 µM; in the experiment with NCI-H226 lung, 2.17 µM; in the experiment with NCI-H460 lung it was 1.53 µM; with SK-OV-3 ovarian it was 2.43 µM; with HCC-2998 colon, 1.8 µM; in the experiment on KM12 colon, 1.44 µM. Besides, the GI50 in the experiment on MDA-MB-231 breast is 1.88 µM; in the experiment on K-562 leukemia, 2.09 µM; in the experiment on DU-145 prostate, 1.8 µM; with M14 melanoma it was 1.91 µM. The TGI came to 2.88 µM with UACC-62 melanoma; 6 µM with NCI-H226 lung; 3.5 µM in the experiment with NCI-H460 lung; 5.71 µM in the experiment with SK-OV-3 ovarian; 3.45 µM with HCC-2998 colon; 2.93 µM in the experiment on KM12 colon. Moreover, the TGI with MDA-MB-231 breast is 5.18 µM; with K-562 leukemia, 11.8 µM; with DU-145 prostate, 4.93 µM; in the experiment with M14 melanoma, 5.05 µM.

In the case of `Cc1ccc(C)c(C2NC(=O)c3ccccc3N2)c1` (stereo not drawn), the TGI was greater than 70.3 µM in the experiment with UACC-62 melanoma; 20.5 µM in the experiment on NCI-H226 lung; 34.5 µM in the experiment on NCI-H460 lung; greater than 75.1 µM with SK-OV-3 ovarian; 31.4 µM in the experiment on HCC-2998 colon; greater than 70.8 µM with KM12 colon. Further, the concentration for total growth inhibition (TGI) in the experiment on MDA-MB-231 breast is 72.7 µM; in the experiment on K-562 leukemia it was greater than 30.1 µM; with DU-145 prostate, greater than 50.9 µM; in the experiment on M14 melanoma, 26.1 µM.

`COc1cc(Nc2nc3ccccc3cc2C(=O)Nc2ccc(F)c(F)c2)cc(OC)c1OC`: the GI50 with UACC-62 melanoma is 1.68 µM; in the experiment with NCI-H226 lung, 2.55 µM; in the experiment on NCI-H460 lung, 3.11 µM; with SK-OV-3 ovarian, 2.65 µM; with HCC-2998 colon it was 4.19 µM; in the experiment on KM12 colon it was 2.89 µM. The GI50 was 2.06 µM in the experiment on MDA-MB-231 breast, 3.31 µM in the experiment with K-562 leukemia, 4.25 µM in the experiment with DU-145 prostate and 2.74 µM in the experiment on M14 melanoma. In addition, the TGI is 4.46 µM in the experiment on UACC-62 melanoma; 7.93 µM with NCI-H226 lung; greater than 100 µM with NCI-H460 lung; 7.8 µM in the experiment with SK-OV-3 ovarian; greater than 100 µM in the experiment with HCC-2998 colon; 16 µM with KM12 colon. The values for the concentration for total growth inhibition (TGI) with MDA-MB-231 breast, with K-562 leukemia and in the experiment on DU-145 prostate were 5.69 µM, greater than 100 µM and greater than 100 µM, respectively.

As to `CN1C(=O)N[C@H]2[C@@H]3NC(=O)c4ccc(Br)n4[C@@H]3C[C@]21O`, the concentration for 50% growth inhibition (GI50) is 0.0861 µM with UACC-62 melanoma; 0.212 µM in the experiment on NCI-H226 lung; 0.0403 µM with NCI-H460 lung; 1.37 µM with SK-OV-3 ovarian; 0.13 µM in the experiment on HCC-2998 colon; 0.191 µM in the experiment with KM12 colon. The 50% growth inhibitory concentration (GI50) in the experiment on MDA-MB-231 breast is 0.165 µM; with K-562 leukemia it was 0.0827 µM; with DU-145 prostate, 0.121 µM; with M14 melanoma, 0.0454 µM. Further, the total growth inhibition concentration (TGI) stood at 1.18 µM in the experiment on UACC-62 melanoma; 2.64 µM in the experiment on NCI-H226 lung; 1.5 µM in the experiment on NCI-H460 lung; 5.5 µM in the experiment on SK-OV-3 ovarian; 1.75 µM in the experiment on HCC-2998 colon; 5.47 µM with KM12 colon. For the same compound, the total growth inhibition concentration (TGI) is 2.69 µM in the experiment with MDA-MB-231 breast, 1.43 µM in the experiment with K-562 leukemia, 2.8 µM in the experiment with DU-145 prostate and 0.236 µM with M14 melanoma.

The GI50 is the concentration at which growth is held to half of that of the control. As a reminder, the TGI is the concentration at which net growth stops. Read a low TGI as more potent growth arrest.
